This passage reports Activity results from ChEMBL document CHEMBL3046005, “New Insecticidal 4-Acetoxy-2-alkenylquinolines” (1996).

What all share (type): functional
Test [1] concerns Bombyx mori. In words: Insecticidal activity against Bombyx mori larvae assessed as mortality at 10 ug administered topically measured after 48 hr.
The test system of test [2] is Bombyx mori. In words: Insecticidal activity against Bombyx mori larvae assessed as mortality at 40 ug administered topically measured after 48 hr.
Test [3] has as its system Bombyx mori. In words: Insecticidal activity against Bombyx mori larvae assessed as mortality at 2.5 ug administered topically measured after 48 hr.
In test [4] the test system is Plutella xylostella. In words: Insecticidal activity against Plutella xylostella (diamondback moth) larvae assessed as mortality at 500 ppm by leaf spray method.
Test [5] has as its system Bombyx mori. In words: Insecticidal activity against Bombyx mori larvae assessed as mortality at 0.63 ug administered topically measured after 48 hr.
The subject of test [6] is Laodelphax striatellus. In words: Insecticidal activity against Laodelphax striatella (small brown planthopper) larvae assessed as mortality at 1000 ppm by leaf spray method.
The test system of test [7] is Tetranychus urticae. In words: Insecticidal activity against Tetranychus urticae (two-spotted spider mite) eggs assessed as mortality at 250 ppm by leaf spray method.
Test [8] relates to Laodelphax striatellus. In words: Insecticidal activity against Laodelphax striatella (small brown planthopper) larvae assessed as mortality at 500 ppm by leaf spray method.
In test [9] the test system is Tetranychus urticae. In words: Insecticidal activity against Tetranychus urticae (two-spotted spider mite) eggs assessed as mortality at 500 ppm by leaf spray method.
Test [10] has as its system Tetranychus urticae. In words: Insecticidal activity against Tetranychus urticae (two-spotted spider mite) eggs assessed as mortality at 1000 ppm by leaf spray method.
The subject of test [11] is Laodelphax striatellus. In words: Insecticidal activity against Laodelphax striatella (small brown planthopper) larvae assessed as mortality at 250 ppm by leaf spray method.
In test [12] the test system is Plutella xylostella. In words: Insecticidal activity against Plutella xylostella (diamondback moth) larvae assessed as mortality at 250 ppm by leaf spray method.
The subject of test [13] is Plutella xylostella. In words: Insecticidal activity against Plutella xylostella (diamondback moth) larvae assessed as mortality at 1000 ppm by leaf spray method.

On to `CCCCCC/C=C/Cc1[nH]c2ccccc2c(=O)c1C`, for which the Activity in the test on Bombyx mori [1] is recorded as 0%; in the test with Bombyx mori [2] it was 20%; in the test with Bombyx mori [3] it was 0%.

Turning to `CCCCCC/C=C/C(O)c1nc2ccccc2c(OC(C)=O)c1C` (configuration not stated), the figures for the Activity with Bombyx mori [1], in the test on Bombyx mori [2] and in the test on Bombyx mori [3] were 10%, 85% and 0%, respectively.

For the compound `CCCCC/C=C/C=C/c1nc2ccccc2c(OC(C)=O)c1C`, the Activity in the test on Bombyx mori [1] is recorded as 0%; in the test with Bombyx mori [2], 100%; in the test on Bombyx mori [3], 0%.

Take `CCCCCCC/C=C\c1nc2ccccc2c(OC(C)=O)c1C`: the Activity came out at 100% with Plutella xylostella [4]; 100% in the test with Bombyx mori [1]; 65% with Bombyx mori [5]; 100% in the test on Laodelphax striatellus [6]; 100% in the test with Bombyx mori [2]; 68.2% in the test with Tetranychus urticae [7]. The Activity with Laodelphax striatellus [8] is recorded as 94%; with Bombyx mori [3] it was 100%; in the test with Tetranychus urticae [9], 100%; in the test on Tetranychus urticae [10], 100%; in the test on Laodelphax striatellus [11], 76%; with Plutella xylostella [12], 100%. Moreover, the Activity in the test on Plutella xylostella [13] was 100%.

`CCCCCCC/C=C/c1nc2ccccc2c(OC(C)=O)c1C`: the Activity with Bombyx mori [1] is 100%; with Bombyx mori [5] it was 0%; in the test on Bombyx mori [2] it was 100%; in the test with Bombyx mori [3] it was 100%.

On to `CCCCCC/C=C/Cc1nc2ccccc2c(OC(C)=O)c1C`, for which the Activity came out at 100% with Bombyx mori [1], 15% in the test on Bombyx mori [5], 100% with Bombyx mori [2] and 100% in the test with Bombyx mori [3].

For the compound `CCCCCC/C=C/C(O)c1nc2ccccc2c(O)c1C` (configuration not stated), the Activity in the test on Bombyx mori [1] is 0%; with Bombyx mori [2], 5%; in the test on Bombyx mori [3], 0%.

Consider `CCCCC/C=C/C=C/c1nc2ccccc2c(O)c1C`, for which the Activity in the test with Bombyx mori [1], with Bombyx mori [2] and in the test on Bombyx mori [3] was 0% in each case.

`CCCCCCC/C=C\c1nc2ccccc2c(O)c1C`: the figures for the Activity in the test on Bombyx mori [1], with Bombyx mori [2] and in the test on Bombyx mori [3] were 20%, 70% and 0%, respectively.

Turning to `CCCCCCC/C=C/c1nc2ccccc2c(O)c1C`, the Activity in the test with Bombyx mori [1], with Bombyx mori [2] and in the test with Bombyx mori [3] was 0% throughout.
